Test results as given in patent US20120301895A1, “METHODS OF MODULATING BINDING OF SON OF SEVENLESS TO PHOSPHATIDIC ACID AND IDENTIFYING COMPOUNDS THAT MODULATE SUCH BINDING” (THE RESEARCH FOUNDATION OF STATE UNIVERSITY OF NEW YORK, priority 2007, published 2012).
Substitutions are numbered along the chain they refer to.

What was measured:
HIF2α = HIF2α expression in 786-O cells (Western blot); assay type: cell-based, human; details: 0.5% serum, 4 hr, honokiol 20 μM, 1-BtOH 0.8%
Procedure: In FIG. 15B, 786-O cells were plated and then shifted to media containing 0.5% serum 24 hr later. 18 hr later, the cells were treated with 1-Bt0H (0.8%), honokiol (Hon) (20 μM), and t-BtOH (0.8%) as indicated. Cell lysates were prepared 4 hr later and examined for HIF2α and actin expression by Western lot analysis. The experiment shown is representative of two independent experiments.
Extraction of proteins from cultured cells and Western blot analysis of extracted proteins was performed using the ECL system (Amersham) as described previously (Chen et al., “Alternative Phospholipase D/mTOR Survival Signal in Human Breast Cancer Cells,” Oncogene 24:672-9 (2005), which is hereby incorporated by reference in its entirety).
The effect of honokiol on HIF2α expression was examined in these cells.

Ras = Ras activation by Sos-ΔC after PA treatment, RBD pull-down in COS-1 cells; assay type: cell-based; details: membrane-permeable PA 100 μM, serum-starved COS-1 cells
Procedure: In FIG. 6A, COS-1 cells were transfected with GFP-tagged constructs of Sos-PH or Sos-PH-HR/EE. The cells were serum-starved and then treated with PA (100 μM) for 20 min. In FIG. 6B, COS-1 cells were transfected with HA-tagged Sos-ΔC or Sos-ΔC-HR/EE. The cells were serum-starved and then stimulated with serum (20%) for 10 min. For FIGS. 6A-B, the fluorescence staining patterns were analyzed through the acquisition of serial optical Z sections. The images shown represent single 0.25 μm optical sections acquired at the mid plane of the cells with the same exposure time. Membrane localization is reflected by the relative increase in fluorescence intensity at the cell periphery (arrowheads). […] The number of cells displaying plasma membrane localization of the protein is expressed as percentage of the total number of cells scored and normalized to the maximal value obtained for each experiment. […] Results are the mean+/−s.d. of three independent experiments with at least 100 cells scored in each experiment. […] Ras activation was measured by the RBD pull-down assay as described in the Examples. […]
The levels of Ras-GTP were determined by the GST-RBD pull down assay as described previously (Boykevisch et al., “Regulation of Ras Signaling Dynamics by Sos-mediated Positive Feedback,” Curr. Biol. 16:2173-2179 (2006), which is hereby incorporated by reference in its entirety). […]

Sos-PH [1] = target: T1, Sos-PH (Homo sapiens, UniProt Q07889); assay: PA-induced plasma membrane translocation of GFP-tagged Sos-PH in COS-1 cells (fluorescence microscopy); assay type: cell-based, African green monkey; details: membrane-permeable PA 100 μM, 20 min, serum-starved COS-1 cells, wild-type Sos-PH
T1 construct: expressed in transfected cells; host or cells: COS-1
T1 sequence (Q07889 422-551): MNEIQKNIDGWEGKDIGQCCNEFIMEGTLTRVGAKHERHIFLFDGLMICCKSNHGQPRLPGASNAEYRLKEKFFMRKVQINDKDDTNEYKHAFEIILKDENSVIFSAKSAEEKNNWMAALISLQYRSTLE
Procedure: (§1) In FIG. 6A, COS-1 cells were transfected with GFP-tagged constructs of Sos-PH or Sos-PH-HR/EE. The cells were serum-starved and then treated with PA (100 μM) for 20 min. In FIG. 6B, COS-1 cells were transfected with HA-tagged Sos-ΔC or Sos-ΔC-HR/EE. The cells were serum-starved and then stimulated with serum (20%) for 10 min. For FIGS. 6A-B, the fluorescence staining patterns were analyzed through the acquisition of serial optical Z sections. The images shown represent single 0.25 μm optical sections acquired at the mid plane of the cells with the same exposure time. Membrane localization is reflected by the relative increase in fluorescence intensity at the cell periphery (arrowheads). The boxed areas are enlarged on the top and bottom of the corresponding images. The number of cells displaying plasma membrane localization of the protein is expressed as percentage of the total number of cells scored and normalized to the maximal value obtained for each experiment. […] Results are the mean+/−s.d. of three independent experiments with at least 100 cells scored in each experiment. Scale bars represent 20 μm in all panels. In FIGS. 6C-D, COS-1 cells were co-transfected with HA-tagged Ras and the indicated HA-tagged Sos-ΔC constructs. […] Ras activation was measured by the RBD pull-down assay as described in the Examples. […]

Sos-PH [2] = target: T2, Sos-PH (Homo sapiens, UniProt Q07889, H475E/R479E); assay: as above; assay type: cell-based, African green monkey; details: membrane-permeable PA 100 μM, 20 min, serum-starved COS-1 cells
T2 construct: expressed in transfected cells; host or cells: COS-1
T2 sequence (Q07889 422-551 H475E/R479E): T1 sequence (Q07889 422-551) with H54E, R58E
Procedure: as §1

Row | Compound | HIF2α expression (HIF2α) | Ras activation by SosΔC (Ras) | level of active Ras in cells expressing SosΔC-HR/EE (Ras) | Sos-PH translocation to the plasma membrane (Sos-PH [1]) | plasma membrane recruitment of Sos-PH-HR/EE (Sos-PH [2])
1 | CCCCO [1-butanol] | suppressed |  |  |  | 
2 | CCCCCCCCCCCC(=O)OC[C@H](COP(=O)(O)O)OC(=O)CCCCCCCCCCC [PA, 1,2-Dilauroyl-sn-Glycero-3-Phosphate] |  | sufficed to induce | did not increase | stimulated | failed to induce
